PubChem BioAssay (NCI)
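All cell lines were grown in 96-well plates and treated with compound for 48 hours. The concentration for full growth arrest is given as TGI.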

Columns and labels:
Assay in all cases: NCI anticancer screen, dose series, 48 h
786-0 renal = tested on: 786-0 renal
A498 renal = tested on: A498 renal
A549 NSCLC = tested on: A549 NSCLC
ACHN renal = tested on: ACHN renal
CAKI-1 renal = tested on: CAKI-1 renal
CCRF-CEM leukemia = tested on: CCRF-CEM leukemia
COLO 205 colon = tested on: COLO 205 colon
DLD-1 colon = tested on: DLD-1 colon
DMS 114 small cell lung = tested on: DMS 114 small cell lung
DMS 273 small cell lung = tested on: DMS 273 small cell lung
EKVX NSCLC = tested on: EKVX NSCLC
HCC-2998 colon = tested on: HCC-2998 colon
HCT-116 colon = tested on: HCT-116 colon
HCT-15 colon = tested on: HCT-15 colon
HL-60(TB) leukemia = tested on: HL-60(TB) leukemia
HOP-62 NSCLC = tested on: HOP-62 NSCLC
HOP-92 NSCLC = tested on: HOP-92 NSCLC
HT29 colon = tested on: HT29 colon
IGROV1 ovarian = tested on: IGROV1 ovarian
K-562 leukemia = tested on: K-562 leukemia
KM12 colon = tested on: KM12 colon
KM20L2 colon = tested on: KM20L2 colon
LOX IMVI melanoma = tested on: LOX IMVI melanoma
LXFL 529 NSCLC = tested on: LXFL 529 NSCLC
M14 melanoma = tested on: M14 melanoma
M19-MEL melanoma = tested on: M19-MEL melanoma
MALME-3M melanoma = tested on: MALME-3M melanoma
MOLT-4 leukemia = tested on: MOLT-4 leukemia
NCI-H226 lung = tested on: NCI-H226 lung
NCI-H23 lung = tested on: NCI-H23 lung
NCI-H460 lung = tested on: NCI-H460 lung
NCI-H522 lung = tested on: NCI-H522 lung
OVCAR-3 ovarian = tested on: OVCAR-3 ovarian
OVCAR-4 ovarian = tested on: OVCAR-4 ovarian
OVCAR-5 ovarian = tested on: OVCAR-5 ovarian
OVCAR-8 ovarian = tested on: OVCAR-8 ovarian
RPMI-8226 leukemia = tested on: RPMI-8226 leukemia
RXF 393 renal = tested on: RXF 393 renal
SF-268 CNS = tested on: SF-268 CNS
SF-295 CNS = tested on: SF-295 CNS
SF-539 CNS = tested on: SF-539 CNS
SK-MEL-2 melanoma = tested on: SK-MEL-2 melanoma
SK-MEL-28 melanoma = tested on: SK-MEL-28 melanoma
SK-MEL-5 melanoma = tested on: SK-MEL-5 melanoma
SK-OV-3 ovarian = tested on: SK-OV-3 ovarian
SN12C renal = tested on: SN12C renal
SNB-19 CNS = tested on: SNB-19 CNS
SNB-75 CNS = tested on: SNB-75 CNS
SNB-78 CNS = tested on: SNB-78 CNS
SR leukemia = tested on: SR leukemia
SW-620 colon = tested on: SW-620 colon
TK-10 renal = tested on: TK-10 renal
U251 CNS = tested on: U251 CNS
UACC-62 melanoma = tested on: UACC-62 melanoma
UO-31 renal = tested on: UO-31 renal
XF 498 CNS = tested on: XF 498 CNS
HOP-18 NSCLC = tested on: HOP-18 NSCLC
UACC-257 melanoma = tested on: UACC-257 melanoma

Measured: TGI

COc1ccc(C(=O)c2c(C(C(=O)c3ccc(OC)cc3)C(=O)c3ccc(OC)cc3)n(C(=O)c3ccc(OC)cc3)c3ccccc23)cc1
not listed: HOP-18 NSCLC | UACC-257 melanoma
> 100 µM: all other assays above

O=C(OCc1ccccc1)N1N=NC2C1C1CC(OCc3ccccc3)(OCc3ccccc3)C2O1 (stereo unspecified)
not listed: DMS 114 small cell lung | EKVX NSCLC | HCT-116 colon | NCI-H522 lung | OVCAR-8 ovarian | SNB-19 CNS | SR leukemia | TK-10 renal
> 100 µM: all other assays above
